Values of other authors in patent publication US20110318267A1, “PH-RESPONSIVE NANOSTRUCTURES” (PRESIDENT AND FELLOWS OF HARVARD COLLEGE, priority 2008, published 2011).

C=C(C)C(=O)OCCN(C)C [DMAEMA, dimethylaminoethyl methacrylate]
pKa: 7.5
